We go through eleven compounds from patent US8686044B2, “Amide derivative, pest control agent containing the amide derivative, and use of the amide derivative” (Mitsui Chemicals Agro, Inc., priority 2008, dated 2014).

Assay type in all cases: in vivo
For assay [1], the system named is Spodoptera litura. Kind of assay: Pesticidal test against Spodoptera litura (cabbage leaf dip). As to conditions: foliar, 144 h, concentration 1 ppm, 2-stage larvae, examined after 6 days, 25° C., read-out: pesticidal rate. In a few lines:
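Cabbage leaf pieces dipped 30 seconds in compound solution at a predetermined concentration and air-dried, then offered to second-stage larvae, five per group in two replicates. Held at 25° C. Living and dead larvae counted after 6 days.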

In assay [2] the test system is Plutella xylostella. Kind of assay: Pesticidal test against Plutella xylostella (cabbage leaf dip). As to conditions: foliar, 144 h, concentration 1 ppm, 2-stage larvae, examined after 6 days, 25° C., read-out: pesticidal rate. In a few lines:
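Cabbage leaf pieces dipped 30 s in test solution at a predetermined concentration, air-dried, then offered to 2nd-instar larvae, five per group in duplicate. Held at 25° C; living and dead larvae counted after 6 days.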

The test system of assay [3] is Adoxophyes honmai. Kind of assay: Pesticidal test against Adoxophyes honmai (artificial feed dip). As to conditions: 144 h, 2-stage larvae, examined after 6 days, 25° C., read-out: pesticidal rate; for pest or weed control at 1 ppm: concentration 1 ppm; for pest or weed control at 10 ppm: concentration 10 ppm. The procedure, abridged:
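Thin artificial feed slices dipped 30 s in test solution at a predetermined concentration, air-dried, then offered to 2nd-stage larvae. Kept at 25° C; live and dead larvae counted after 6 days. Five larvae per group, two replicates.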

Assay [4] concerns Choristoneura magnanima. Kind of assay: Pesticidal test against Choristoneura magnanima (artificial feed dip). As to conditions: 144 h, 2-stage larvae, examined after 6 days, 25° C., read-out: pesticidal rate; for pest or weed control at 1 ppm: concentration 1 ppm. The procedure, abridged: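 Thin artificial feed slices dipped 30 s in compound solution at a set concentration, air-dried, then offered to 2nd-stage larvae held at 25° C. Living and dead larvae counted after 6 days; five larvae per group, two replicates.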

The subject of assay [5] is Helicoverpa armigera. The experiment in a line: Pesticidal test against Helicoverpa armigera (cabbage leaf disk dip). The conditions noted are these: foliar, 72 h, 2-stage larvae, examined after 3 days, 25° C., read-out: pesticidal rate; for pest or weed control at 1 ppm: concentration 1 ppm. The procedure, abridged:
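Cabbage leaf disks were dipped for 30 s in test solution at a set concentration and air-dried. Second-instar larvae were placed one per hole and held at 25 °C, with live and dead counts taken after 3 days. Five larvae per group were tested in two replicates.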

The test system of assay [6] is Laodelphax striatellus. Kind of assay: Pesticidal test against Laodelphax striatellus (rice seedling spray). The conditions noted are these: 144 h, concentration 100 ppm, 3-stage larvae, examined after 6 days, 25° C., read-out: pesticidal rate. In a few lines:
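Rice seedlings sprayed with 2.5 ml acetone solution of compound at a predetermined concentration, air-dried, then infested with third-stage Laodelphax striatellus larvae in capped water-containing tubes at 25 °C. Living and dead insects counted after 6 days; ten larvae per group, two replicates.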

Assay [7] has as its system Musca domestica. The experiment in a line: Pesticidal test against Musca domestica (petri dish dry film). As to conditions: 24 h, concentration 100 ppm, female adults, examined after 1 day, 25° C., read-out: pesticidal rate. In a few lines: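 Dry film from 1 ml acetone solution of compound at a predetermined concentration, air-dried in a 9 cm petri dish; female adult flies released and dish capped. Held at 25° C; living and dead counted after 1 day. Five insects per group, two replicates.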

Assay [8] relates to Blattella germanica. Kind of assay: Pesticidal test against Blattella germanica (petri dish dry film). The conditions noted are these: 24 h, concentration 100 ppm, female adults, examined after 1 day, 25° C., read-out: pesticidal rate. In a few lines:
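Acetone solution of test compound at a predetermined concentration dried as a film in a 9 cm petri dish; female adult cockroaches released onto it and kept at 25° C. Living and dead counted after 1 day; five insects per group, two replicates.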

The subject of assay [9] is Coptotermes formosanus. Kind of assay: Pesticidal test against Coptotermes formosanus (treated filter paper). The conditions noted are these: 120 h, concentration 30 ppm, examined after 5 days of treatment, 28° C., read-out: pesticidal rate. The protocol: Pesticidal Test against Coptotermes formosanus
20 μl of an acetone solution in which a test compound had been prepared at a predetermined concentration was added dropwise to the filter paper having a diameter of […] included in a polypropylene cup, and air-dried, and then 20 μl of water was added thereto. Coptotermes formosanus was released and the cup was capped. They were left to stand in a thermostatic chamber at 28° C., and the numbers of the living pests and the dead pests were examined after 5 days of treatment. The test was carried out with ten larvae per group in two replicates.

Assay [10] concerns Ctenocephalides Felis. Kind of assay: Insecticidal test for Ctenocephalides felis, Test Example 1 (dry film in glass tube, 0.5 ml, Table A4). The conditions noted are these: for pest or weed control at 0.1 µg/mL / pest or weed control at 1 µg/mL: Ctenocephalides felis, read-out: death rate; for pest or weed control at 1 µg/mL: concentration 1.0 μg/ml. The protocol: Insecticidal Test for Ctenocephalides Felis
0.5 ml of a solution of acetone, the active ingredient, prepared to the prescribed concentration was added dropwise to a glass tube with a flat bottom (internal diameter: 2.6 cm, bottom area: 5.3 cm^2, height: 12 cm), and the solvent was evaporated at room temperature to form a dry film of the agent on the bottom surface. About 10 adults of Ctenocephalides Felis per glass tube were added, and the adults were contact-exposed to the test compound. After 24 hours of the exposure, the conditions of the adults were examined and classified into “alive” and “dead (including a moribund condition)” to determine the death rate (in triplicate).
As the comparative compounds, the following Compounds (A), (B), and (C) disclosed in WO2009/080203, and fipronil were used.

Assay [11] concerns Ctenocephalides Felis. Kind of assay: Insecticidal test for Ctenocephalides felis, Test Example 3 (dry film in glass tube, 0.96 ml, Table A5). The conditions noted are these: adults of Ctenocephalides felis, after 24 hours of exposure, in triplicate. The protocol: Insecticidal Test for Ctenocephalides felis
0.96 ml of a solution of acetone, the active ingredient, prepared to the prescribed concentration was added dropwise to a glass tube with a flat bottom (internal diameter: 3.6 cm, height: 12 cm), and the solvent was evaporated at room temperature to form a dry film of the agent on the bottom surface. About 10 adults of Ctenocephalides felis per glass tube were added, and they were contact-exposed to the test compound. After 24 hours of the exposure, the conditions of the adults were examined and classified into “alive” and “dead (including a moribund condition)” to determine the death rate was determined (in triplicate).
As the comparative compounds, the following Compounds (D) and (E) disclosed in WO2009/080203, and fipronil were used.

Assay [12] concerns Rhipicephalus sanguineus. The experiment in a line: Insecticidal test for Rhipicephalus sanguineus (treated glass petri dish, Table A6). The conditions noted are these: adults of Rhipicephalus sanguineus, 18 hour exposure, examined after 48 hours, in single. The protocol:
Insecticidal Test for Rhipicephalus sanguineus
0.5 ml of a solution of acetone, the active ingredient, prepared to the prescribed dose was added dropwise into a glass petri dish with a diameter of 10 cm, and the acetone was evaporated at room temperature. About 10 adults of Rhipicephalus sanguineus per dish were added, and the dish was covered by another glass petri dish that was treated with the active ingredient in the same manner described above. After 18 hour exposure to the test substance, the adults were transferred into a glass petri dish that was not treated with the active ingredient. After 48 hours of the exposure, the conditions of the adults were examined and classified into “alive” and “dead (including a moribund condition)” to determine the death rate (in single).
As the comparative compounds, said Compounds (B), (C), and (D), and the following Compound (F) disclosed in WO2009/080203, and fipronil were used.

The subject of assay [13] is Ctenocephalides Felis. The experiment in a line: Insecticidal test for Ctenocephalides felis, Test Example 1 (dry film in glass tube, 0.5 ml, Table A4). As to conditions: adults.
The mark [14] stands for this setting: concentration 0.1 μg/ml, adults, after 24 hours of the exposure, in triplicate.
Where [15] appears, read: adults, after 24 hours of the exposure, in triplicate.

Like-named read-outs stand apart in the source and are kept apart here.

In the case of `CN(C(=O)c1cccc(F)c1)c1cccc(C(=O)Nc2c(I)cc(C(F)(C(F)(F)F)C(F)(F)F)cc2C(F)(F)F)c1F` [7-1732, 2-fluoro-3-(3-fluoro-N-methylbenzamide)-N-(2-iodo-4-(heptafluoropropan-2-yl)-6-(trifluoromethyl)phenyl)benzamide], the pest or weed control at 1 ppm in assay [1], in assay [2], in assay [3], in assay [4] and in assay [5] was no less than 70% each time. The pest or weed control at 100 ppm in assay [6], in assay [7] and in assay [8] was no less than 70% throughout. Further, the pest or weed control at 30 ppm in [9] was no less than 70%. Also, the pest or weed control at 0.1 µg/mL in [10] (setting [14]) came to 76.7%.
Take `Cc1cc(C(F)(C(F)(F)F)C(F)(F)F)cc(C)c1NC(=O)c1cccc(NC(=O)c2cccnc2Cl)c1F` [compound (D)]: the death rate stood at 22.0% in assay [11] (0.3 μg/ml); 61.4% in [11] (1 μg/ml); 0.0% in assay [12] (0.673 mg/m^2); 10.0% in [12] (2.69 mg/m^2); 50.0% in [12] (10.8 mg/m^2).
For the compound `Cc1cc(C(F)(C(F)(F)F)C(F)(F)F)cc(C)c1NC(=O)c1cccc(NC(=O)c2cccnc2F)c1` [compound (A), reference compound], in [10] (setting [15]), the pest or weed control at 1 µg/mL stood at 0%.
On to `CN(C(=O)c1ccc(F)cc1)c1cccc(C(=O)Nc2c(Br)cc(C(F)(C(F)(F)F)C(F)(F)F)cc2C(F)(F)F)c1F` [7-1577], for which the pest or weed control at 1 ppm in assay [1], in assay [2], in assay [4] and in assay [5] was no less than 70% throughout. For the same compound, the pest or weed control at 10 ppm in assay [3] was no less than 70%. Moreover, the pest or weed control at 100 ppm in assay [6], in [7] and in assay [8] was no less than 70% in each case. Further, the pest or weed control at 30 ppm in assay [9] is no less than 70%.
Consider `O=C(Nc1cccc(C(=O)Nc2c(I)cc(C(F)(C(F)(F)F)C(F)(F)F)cc2C(F)(F)F)c1F)c1ccc(F)cc1` [6-1733, 2-fluoro-3-(4-fluorobenzamide)-N-(2-iodo-4-(heptafluoropropan-2-yl)-6-(trifluoromethyl)phenyl)benzamide], for which the pest or weed control at 1 ppm in [1], in assay [2], in assay [3], in assay [4] and in assay [5] was no less than 70% in each case. The pest or weed control at 100 ppm in assay [6], in assay [7] and in [8] was no less than 70% each time. Besides, the pest or weed control at 0.1 µg/mL in [10] (setting [14]) stood at 70%.
For the compound `O=C(Nc1cccc(C(=O)Nc2c(I)cc(C(F)(F)F)cc2C(F)(F)F)c1)c1ccccc1` [compound (C)], the pest or weed control at 1 µg/mL in assay [10] (setting [15]) was 0%. Besides, the death rate in [12] (0.673 mg/m^2) turned out to be 0.0%; in assay [12] (2.69 mg/m^2) it was 11.1%; in assay [12] (10.8 mg/m^2) it was 10.0%.
With `O=C(Nc1cccc(C(=O)Nc2c(I)cc(C(F)(C(F)(F)F)C(F)(F)F)cc2I)c1)c1ccccc1` [compound (B)], in assay [10] (setting [15]), the pest or weed control at 1 µg/mL amounted to 3.2%. For the same compound, the results for the death rate in [12] (0.673 mg/m^2), in [12] (2.69 mg/m^2) and in assay [12] (10.8 mg/m^2) were 0.0%, 20.0% and 50.0%, respectively.
Take `CN(C(=O)c1ccccc1)c1cccc(C(=O)Nc2c(I)cc(C(F)(C(F)(F)F)C(F)(F)F)cc2C(F)(F)F)c1` [7-424]: the pest or weed control at 1 ppm in [1], in [2] and in [5] was no less than 70% throughout. The pest or weed control at 10 ppm in [3] and in assay [4] (concentration 10 ppm) was no less than 70% throughout. Besides, the pest or weed control at 100 ppm in assay [6], in assay [7] and in assay [8] was no less than 70% throughout. In addition, the pest or weed control at 30 ppm in assay [9] is no less than 70%.
Take `CCc1cc(C(F)(C(F)(F)F)C(F)(F)F)cc(C)c1NC(=O)c1cccc(NC(=O)c2ccccc2Cl)c1F` [compound (E)]: the death rate in assay [11] (1 μg/ml) was found to be 0.0%.
As to `CN(C(=O)c1ccccc1)c1cccc(C(=O)Nc2c(Br)cc(C(F)(C(F)(F)F)C(F)(F)F)cc2Br)c1F` [7-1104, N-(2,6-dibromo-4-(heptafluoropropan-2-yl)phenyl)-2-fluoro-3-(N-methylbenzamide)benzamide], the pest or weed control at 1 ppm in [1], in assay [2] and in assay [4] was no less than 70% in each case. Moreover, the pest or weed control at 10 ppm in assay [3] and in [5] (concentration 10 ppm) was no less than 70% each time. The pest or weed control at 100 ppm in assay [6], in assay [7] and in assay [8] was no less than 70% each time. Further, the pest or weed control at 30 ppm in assay [9] was no less than 70%. Besides, the pest or weed control at 0.1 µg/mL in [10] (setting [14]) amounted to 73.3%. In addition, the “speed of effect as compared with the fipronil” value in assay [10] (adults, compared with fipronil) is “immediate effect”. In addition, in assay [13], the “effect in the examination after 12 hours of the exposure” value was “effective”.
For `N#Cc1nn(-c2c(Cl)cc(C(F)(F)F)cc2Cl)c(N)c1[S+]([O-])C(F)(F)F` (stereo not shown) [fipronil], the pest or weed control at 0.1 µg/mL in assay [10] (24 h) is 92.1%. For the same compound, the death rate in assay [11] (0.03 μg/ml) is given as 70.0%; in assay [11] (0.1 μg/ml) it was 100.0%; in assay [12] (0.0431 mg/m^2), 0.0%; in assay [12] (0.172 mg/m^2) it was 45.5%; in assay [12] (0.673 mg/m^2), 100.0%.
